{
  "source": "patent US10316053B2",
  "about": "“Flavonoid compounds and uses thereof” (ARMARON BIO PTY LTD, priority 2012, dated 2019)",
  "origin": "cited, not measured here",
  "system": "myocardial ischaemia and reperfusion",
  "details": "in vitro studies; Wang et al., Br J Pharmacol (2004) 142, 443-452",
  "data": [
    {"smiles": "O=c1c(O)c(-c2ccc(O)c(O)c2)oc2ccccc12", "note": "[DiOHF, 3′,4′-dihydroxy flavonol]", "values": [
      {"measurement": "infarct and injury associated with myocardial ischaemia and reperfusion", "result": "reduce infarct and injury"}
    ]}
  ]
}
